Source: paper PMC6270595, “Synthesis and Cytotoxicity of Novel 10-Substituted Dihydroartemisinin Derivatives Containing N-Arylphenyl-ethenesulfonamide Groups” (Molecules, 2013)
Where two headings read alike, the source gives them in different places.

Legend:
[1] = test system: WI-38 (human fetal lung fibroblasts); assay: MTT cytotoxicity assay, normal cell line WI-38; format: cell-based; conditions: normal WI-38 cells, 50% cell growth inhibition after 72 h of drug exposure, read-out: IC50(μM) WI38
Description: (§1) The cytotoxic activities of target compounds were evaluated against HT-29 (human colon cancer), MDA-MB-231 (human breast cancer), U87MG (human glioblastoma), H460 (human lung cancer), A549 (non-small-cell lung adenocarcinoma), HL-60 (human leukemic) cancer cell lines and one normal cell line WI-38 (human fetal lung fibroblasts) together with references DHA and cisplatin by a MTT assay.
(§2) The cytotoxic activities of compounds 3a–h and 6a–j were evaluated with the HT-29, MDA-MB-231, U87MG, H460, A549, HL-60 cancer cell lines and one normal cell line, WI-38, by the standard MTT assay in vitro [20], with DHA as the positive control. The cell lines were cultured in minimum essential medium (MEM) supplement with 10% fetal bovine serum (FBS). Approximately 4 × 10^3 cells, suspended in MEM medium, were plated on to each well of a 96-well plate and incubated in 5% CO2 at 37 °C for 24 h. The test compounds at indicated final concentrations were added to the culture medium and the cell cultures were continued for 72 h. Fresh MTT was added to each well at a terminal concentration of 5 μg/mL and incubated with cells at 37 °C for 4 h. The formazan crystals were dissolved in 100 μL DMSO each well, and the absorbency at 492 nm (for absorbance of MTT formazan) and 630 nm (for the reference wavelength) was measured with the ELISA reader. All of the compounds were tested twice in each of the cell lines. The results expressed as IC50 (inhibitory concentration 50%) were the averages of two determinations and calculated using the Bacus Laboratories Incorporated Slide Scanner (Bliss) software.

[2] = test system: A549 (non-small-cell lung adenocarcinoma); assay: MTT cytotoxicity assay, A549; format: cell-based, human; conditions: A549 cells, 50% cell growth inhibition after 72 h of drug exposure
Description: as §1, §2

[3] = test system: U87MG (human glioblastoma); assay: MTT cytotoxicity assay, U87MG; format: cell-based; conditions: for IC50: U87MG cells, 50% cell growth inhibition after 72 h of drug exposure, MTT
Description: as §1, §2

HL-60 (human leukemic) = assay: MTT cytotoxicity assay, HL-60; format: cell-based; conditions: for IC50: HL-60 cells, 50% cell growth inhibition after 72 h of drug exposure, MTT
Description: as §1, §2

[4] = test system: HT-29 (human colon cancer); assay: MTT cytotoxicity assay, HT-29; format: cell-based; conditions: HT-29 cells, 50% cell growth inhibition after 72 h of drug exposure, read-out: IC50(μM) HT29
Description: as §1, §2

H460 (human lung cancer) = assay: MTT cytotoxicity assay, H460; format: cell-based; conditions: for IC50: H460 cells, 50% cell growth inhibition after 72 h of drug exposure, MTT
Description: as §1, §2

[5] = test system: MDA-MB-231 (human breast cancer); assay: MTT cytotoxicity assay, MDA-MB-231; format: cell-based; conditions: MDA-MB-231 cells, 50% cell growth inhibition after 72 h of drug exposure
Description: as §1, §2

| SMILES | IC50 [1] | IC50 [2] | IC50 [3] | IC50 (HL-60 (human leukemic)) | IC50 [4] | IC50 (H460 (human lung cancer)) | IC50 [5] | IC50 ([1]; Homo sapiens) | IC50 ([2]; Homo sapiens) | IC50 ([3]; Homo sapiens, U-87 MG) | IC50 (HL-60 (human leukemic); Homo sapiens) | IC50 ([4]; Homo sapiens) | IC50 (H460 (human lung cancer); Homo sapiens, NCI-H460) | IC50 ([5]; Homo sapiens) | melting point | activity fold higher than that of benzamide analog 6c ([3]; U87MG, versus 6c) | activity fold higher than that of benzamide analog 6c (HL-60 (human leukemic); HL-60, versus 6c) | selectivity index (IC50 normal cell/IC50 cancer cell) (HL-60 (human leukemic); WI-38 normal cells versus HL-60) | activity fold higher than that of benzamide analog 6c (H460 (human lung cancer); H460, versus 6c) |
| --- | --- | --- | --- | --- | --- | --- | --- | --- | --- | --- | --- | --- | --- | --- | --- | --- | --- | --- | --- |
| N.N.[Cl][Pt][Cl] [Cisplatin, cisplatin, reference compound] | 51.2 µM | 4.31 µM | 8.21 µM | 9.28 µM | 10.3 µM | 7.55 µM | 6.82 µM | – | – | – | – | – | – | – | – | – | – | – | – |
| C[C@@H]1CC[C@H]2[C@@H](C)C(OCCOc3ccc(/C=C/S(=O)(=O)Nc4ccccc4)cc3)O[C@@H]3O[C@@]4(C)CC[C@@H]1[C@]32OO4 (stereo partly drawn) [Compound 3a, (E)-2-(4-(2-(10β-Dihydroartemisinoxy)ethoxy)phenyl)-N-phenylethenesulfonamide] | – | – | – | – | – | – | – | 16.8 µM | 2.16 µM | 3.97 µM | 1.25 µM | 0.68 µM | 5.38 µM | 2 µM | 136 to 138 °C | – | – | – | – |
| C[C@@H]1CC[C@H]2[C@@H](C)C(OCCOc3ccc(/C=C/S(=O)(=O)Nc4cccc(Cl)c4)cc3)O[C@@H]3O[C@@]4(C)CC[C@@H]1[C@]32OO4 (stereo partly drawn) [Compound 3b, (E)-2-(4-(2-(10β-Dihydroartemisinoxy)ethoxy)phenyl)-N-(3-chlorophenyl)ethenesulfonamide] | – | – | – | – | – | – | – | 23.9 µM | 4.48 µM | 3.51 µM | 0.75 µM | 0.78 µM | 7.32 µM | 1.61 µM | 137 to 138 °C | – | – | – | – |
| C[C@@H]1CC[C@H]2[C@@H](C)C(OCCOc3ccc(/C=C/S(=O)(=O)Nc4ccc(OC(F)(F)F)cc4)cc3)O[C@@H]3O[C@@]4(C)CC[C@@H]1[C@]32OO4 (stereo partly drawn) [Compound 3c, (E)-2-(4-(2-(10β-Dihydroartemisinoxy)ethoxy)phenyl)-N-(4-trifluoromethoxyphenyl)ethenesulfonamide] | – | – | – | – | – | – | – | 37.5 µM | 2.11 µM | 1.59 µM | 0.05 µM | 0.2 µM | 0.97 µM | 0.39 µM | – | 2 fold | 2 fold | 750 | 3 fold |
| Cc1ccc(F)c(NS(=O)(=O)/C=C/c2ccc(OCCOC3O[C@@H]4O[C@@]5(C)CC[C@H]6[C@H](C)CC[C@@H]([C@H]3C)[C@@]46OO5)cc2)c1 (stereo partly drawn) [Compound 3d, (E)-2-(4-(2-(10β-Dihydroartemisinoxy)ethoxy)phenyl)-N-(2-fluoro-5-methylphenyl)ethenesulfonamide] | – | – | – | – | – | – | – | 20.5 µM | 3.64 µM | 5.71 µM | 0.84 µM | 1.78 µM | 4.29 µM | 1.27 µM | 138 to 140 °C | – | – | – | – |
| Cc1ccccc1NS(=O)(=O)/C=C/c1ccc(OCCOC2O[C@@H]3O[C@@]4(C)CC[C@H]5[C@H](C)CC[C@@H]([C@H]2C)[C@@]35OO4)cc1 (stereo partly drawn) [Compound 3e, (E)-2-(4-(2-(10β-Dihydroartemisinoxy)ethoxy)phenyl)-N-(2-methylphenyl)ethenesulfonamide] | – | – | – | – | – | – | – | 16.4 µM | 7.32 µM | 2.73 µM | 2.37 µM | 0.86 µM | 1.58 µM | 1.64 µM | 136 to 138 °C | – | – | – | – |
| C[C@@H]1CC[C@H]2[C@@H](C)C(OCCOc3ccc(/C=C/S(=O)(=O)Nc4ccc(Cl)cc4)cc3)O[C@@H]3O[C@@]4(C)CC[C@@H]1[C@]32OO4 (stereo partly drawn) [Compound 3f, (E)-2-(4-(2-(10β-Dihydroartemisinoxy)ethoxy)phenyl)-N-(4-chlorophenyl)ethenesulfonamide] | – | – | – | – | – | – | – | 19.9 µM | 3.52 µM | 0.79 µM | 0.08 µM | 0.42 µM | 1.41 µM | 1.04 µM | 138 to 141 °C | – | – | – | – |
| C[C@@H]1CC[C@H]2[C@@H](C)C(OCCOc3ccc(/C=C/S(=O)(=O)Nc4ccccc4Cl)cc3)O[C@@H]3O[C@@]4(C)CC[C@@H]1[C@]32OO4 (stereo partly drawn) [Compound 3g, (E)-2-(4-(2-(10β-Dihydroartemisinoxy)ethoxy)phenyl)-N-(2-chlorophenyl)ethenesulfonamide] | – | – | – | – | – | – | – | 16.3 µM | 3.05 µM | 1.78 µM | 0.17 µM | 0.55 µM | 2.53 µM | 0.93 µM | 141 to 143 °C | – | – | – | – |
| C[C@@H]1CC[C@H]2[C@@H](C)C(OCCOc3ccc(/C=C/S(=O)(=O)Nc4c(Cl)cccc4Cl)cc3)O[C@@H]3O[C@@]4(C)CC[C@@H]1[C@]32OO4 (stereo partly drawn) [Compound 3h, (E)-2-(4-(2-(10β-Dihydroartemisinoxy)ethoxy)phenyl)-N-(2,6-dichlorophenyl)ethenesulfonamide] | – | – | – | – | – | – | – | 20.7 µM | 4.33 µM | 2.51 µM | 0.14 µM | 0.49 µM | 1.28 µM | 1.07 µM | 144 to 146 °C | – | – | – | – |
| C[C@@H]1CC[C@H]2[C@@H](C)C(OCCNC(=O)c3ccc(COc4ccc(/C=C/S(=O)(=O)Nc5ccccc5)cc4)cc3)O[C@@H]3O[C@@]4(C)CC[C@@H]1[C@]32OO4 (stereo partly drawn) [Compound 6a, (E)-N-(2-(10β-Dihydroartemisinoxy)ethyl)-4((4-(2-(N-phenylsulfamoyl)vinyl)phenoxy)methyl)benzamide] | – | – | – | – | – | – | – | 20 µM | 3.21 µM | 6.47 µM | 2.41 µM | 0.98 µM | 5.28 µM | 2.26 µM | 142 to 145 °C | – | – | – | – |
| C[C@@H]1CC[C@H]2[C@@H](C)C(OCCNC(=O)c3ccc(COc4ccc(/C=C/S(=O)(=O)Nc5ccc(OC(F)(F)F)cc5)cc4)cc3)O[C@@H]3O[C@@]4(C)CC[C@@H]1[C@]32OO4 (stereo partly drawn) [Compound 6c, (E)-N-(2-(10β-Dihydroartemisinoxy)ethyl)-4((4-(2-(N-(4-trifluoromethoxyphenyl)sulfamoyl)vinyl)phenoxy)methyl)benzamide] | – | – | – | – | – | – | – | 28.2 µM | 1.57 µM | 3.71 µM | 0.09 µM | 0.29 µM | 2.7 µM | 0.49 µM | – | – | – | – | – |
| C[C@H]1[C@@H](O)O[C@@H]2O[C@@]3(C)CC[C@H]4[C@H](C)CC[C@@H]1[C@@]24OO3 [DHA, dihydroartemisinin] | – | – | – | – | – | – | – | > 100 µM | 10.1 µM | 15.8 µM | 5.29 µM | 5.6 µM | 12.4 µM | 9.8 µM | – | – | – | – | – |
